Measured values taken from the NIST ThermoML archive (doi:10.1021/je800636k).
Numbers after ± are expanded uncertainties.

Test: xn = mol fraction of the nth substance listed
Conditions: 101 kPa, Liquid; for electrical conductivity: Qcond 2400 VWR international / cell constant, 1.05; for viscosity: Concentric cylinders viscometry; for mass density: Vibrating tube method

CCCCn1cc[n+](C)c1C.[N-]=[N+]=[N-] [1-butyl-2,3-dimethylimidazolium azide] + CCCCn1cc[n+](C)c1C.F[B-](F)(F)F
Conditions	electrical conductivity [S/m]	mass density [kg/m3]	viscosity [mPa·s]
303.15 K, x1 = 0.25	0.0809 ± 0.0032	–	–
303.15 K, x1 = 0.5	0.0608 ± 0.0024	–	–
303.15 K, x1 = 0.75	0.0604 ± 0.0024	–	–
303.15 K, x1 = 1	0.0488 ± 0.0019	–	–
308.15 K, x1 = 0.25	0.114 ± 0.0046	–	–
308.15 K, x1 = 0.5	0.0887 ± 0.0036	–	–
308.15 K, x1 = 0.75	0.0881 ± 0.0035	–	–
308.15 K, x1 = 1	0.0756 ± 0.003	–	–
313.15 K, x1 = 0.25	0.156 ± 0.0062	1154.97 ± 2.6	210.46 ± 5.5
313.15 K, x1 = 0.5	0.125 ± 0.005	1129.46 ± 2.5	292.06 ± 8.3
313.15 K, x1 = 0.75	0.124 ± 0.005	1098.68 ± 2.3	353.89 ± 11
313.15 K, x1 = 1	0.112 ± 0.0045	1070.46 ± 2.2	338.19 ± 10
318.15 K, x1 = 0.25	0.208 ± 0.0083	–	–
318.15 K, x1 = 0.5	0.172 ± 0.0069	–	–
318.15 K, x1 = 0.75	0.171 ± 0.0068	–	–
318.15 K, x1 = 1	0.159 ± 0.0064	–	–
323.15 K, x1 = 0.25	0.271 ± 0.011	1148.74 ± 2.5	115.24 ± 2.4
323.15 K, x1 = 0.5	0.23 ± 0.0092	1123.48 ± 2.4	156.81 ± 3.6
323.15 K, x1 = 0.75	0.228 ± 0.0091	1092.32 ± 2.3	183.02 ± 4.4
323.15 K, x1 = 1	0.219 ± 0.0088	1065.14 ± 2.2	176.04 ± 4.2
328.15 K, x1 = 0.25	0.345 ± 0.014	–	–
328.15 K, x1 = 0.5	0.302 ± 0.012	–	–
328.15 K, x1 = 0.75	0.299 ± 0.012	–	–
328.15 K, x1 = 1	0.294 ± 0.012	–	–
333.15 K, x1 = 0.25	0.433 ± 0.017	1142.5 ± 2.5	68.72 ± 1.2
333.15 K, x1 = 0.5	0.388 ± 0.015	1117.5 ± 2.4	92.5 ± 1.8
333.15 K, x1 = 0.75	0.383 ± 0.015	1085.96 ± 2.3	105.08 ± 2.1
333.15 K, x1 = 1	0.383 ± 0.015	1059.83 ± 2.2	101.63 ± 2
338.15 K, x1 = 0.25	0.535 ± 0.021	–	–
338.15 K, x1 = 0.5	0.489 ± 0.02	–	–
338.15 K, x1 = 0.75	0.483 ± 0.019	–	–
338.15 K, x1 = 1	0.49 ± 0.02	–	–
343.15 K, x1 = 0.25	0.651 ± 0.026	1136.27 ± 2.5	43.88 ± 0.76
343.15 K, x1 = 0.5	0.608 ± 0.024	1111.52 ± 2.4	58.77 ± 1
343.15 K, x1 = 0.75	0.599 ± 0.024	1079.6 ± 2.3	65.45 ± 1.1
343.15 K, x1 = 1	0.614 ± 0.025	1054.52 ± 2.2	63.6 ± 1.1
348.15 K, x1 = 0.25	0.783 ± 0.031	–	–
348.15 K, x1 = 0.5	0.744 ± 0.03	–	–
348.15 K, x1 = 0.75	0.733 ± 0.029	–	–
348.15 K, x1 = 1	0.756 ± 0.03	–	–
353.15 K, x1 = 0.25	0.929 ± 0.037	1130.03 ± 2.5	29.62 ± 0.51
353.15 K, x1 = 0.5	0.899 ± 0.036	1105.54 ± 2.4	39.64 ± 0.68
353.15 K, x1 = 0.75	0.885 ± 0.035	1073.24 ± 2.2	43.5 ± 0.75
353.15 K, x1 = 1	0.918 ± 0.037	1049.21 ± 2.1	42.44 ± 0.73
358.15 K, x1 = 0.25	1.09 ± 0.044	–	–
358.15 K, x1 = 0.5	1.07 ± 0.043	–	–
358.15 K, x1 = 0.75	1.06 ± 0.042	–	–
358.15 K, x1 = 1	1.1 ± 0.044	–	–
363.15 K, x1 = 0.25	1.27 ± 0.051	1123.8 ± 2.4	20.94 ± 0.36
363.15 K, x1 = 0.5	1.27 ± 0.051	1099.56 ± 2.3	28.06 ± 0.48
363.15 K, x1 = 0.75	1.25 ± 0.05	1066.87 ± 2.2	30.46 ± 0.52
363.15 K, x1 = 1	1.3 ± 0.052	1043.9 ± 2.1	29.82 ± 0.51
368.15 K, x1 = 0.25	1.47 ± 0.059	–	–
368.15 K, x1 = 0.5	1.49 ± 0.059	–	–
368.15 K, x1 = 0.75	1.46 ± 0.058	–	–
368.15 K, x1 = 1	1.52 ± 0.061	–	–
373.15 K, x1 = 0.25	–	1117.56 ± 2.4	15.38 ± 0.26
373.15 K, x1 = 0.5	–	1093.58 ± 2.3	20.68 ± 0.36
373.15 K, x1 = 0.75	–	1060.51 ± 2.2	22.27 ± 0.38
373.15 K, x1 = 1	–	1038.59 ± 2.1	21.87 ± 0.38
